{
  "source": "patent US20100068698A1",
  "about": "“PRODUCTION OF […] C VIRUS PARTICLES IN CELL CULTURE” (priority 2008, published 2010)",
  "tested_on": "infectious H77S (GT 1a virus)",
  "test": "HCV infectious virus EC50 determination (HCV RNA by quantitative RT-PCR in infected Rof-0c cells)",
  "assay_type": "cell-based, Hepatitis C virus genotype 1a",
  "settings": "Hepatitis C virus, GT1A, 72 h, 96-well plate, virus stock grown in human serum, three days post-infection, read-out: potency against infectious H77S (EC50, 50% reduction in HCV RNA)",
  "protocol": "FIG. 6. Potency of an NS5B inhibitor and HCV entry inhibitor against the GT 1a infectious virus. Rof-0c cells were infected with either H77S or the chimera H77S RO-51-5B. At the time of infection, the cells were treated with a serial dilution of either the NS5B inhibitor HCV-796 or the HCV entry inhibitor JS81. After three days, the intracellular RNA was purified and used to determine the amount of HCV RNA.\nThe presence of HCV RNA was examined after purification of total cellular RNA using the PerfectPure RNA 96 Cell Kit (5 Prime) according to the manufacturer's instructions. To quantitate the amount of HCV RNA, cDNA was amplified using either the Taqman Universal PCR mix (Applied Biosystems) or the TaqMan EZ RT-PCR kit (Applied Biosystems) with a set of primers and probe complementary to a region within the 5′ untranslated region (UTR). The primer and probe sequences are: (HCV 20F) […] (SEQ ID NO:4); (HCV 114R) […] (SEQ ID NO:5); (HCV P43) FAM-[…]-TAMRA (SEQ ID NO:6).\nThe sensitivity of infectious HCV to antivirals was determined using the genotype 1a strains H77S or H77S RO-51-5B. […] Three days post-infection, the HCV RNA was quantified as described above. […]\nPotency of HCV inhibitors against GT1a virus. […] The HCV stocks were analyzed to determine if they would be sufficient to measure the potency of HCV inhibitors. […]",
  "data": [
    {"compound": "CNC(=O)c1c(-c2ccc(F)cc2)oc2cc(N(CCO)S(C)(=O)=O)c(C3CC3)cc12", "note": "[HCV-796]", "values": [
      {"measurement": "EC50", "value": "0.032 ± 0.004", "unit": "µM"}
    ]}
  ]
}
